Experimental data from PubChem BioAssay AID248 (DTP/NCI, 2004).
Values joined by “and” are separate entries in the source; they are usually repeats but may differ in a detail not shown here. Equal values may be shown once. Inconclusive results and toxic doses are left out. Cut-off read from the data, not from the text of the source: active = T/C of 150% or more; inactive = T/C below 125%.

Tested on: L1210 leukemia ip in BDF1 mice, survival T/C
Assay: NCI In Vivo Anticancer Drug Screen. Data for tumor model L1210 Leukemia (intraperitoneal) in B6D2F1 (BDF1) mice
Conditions: endpoint: mean survival time, higher = longer survival
Outline: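 Each compound was tested against a transplantable tumor grown in mice. The endpoint was survival, with treated animals benchmarked against vehicle controls as a simple ratio.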

[1] = dose: 50.0 mg/kg/injection, schedule: Q01DX009 (ip), vehicle: saline with Tween-80
[2] = dose: 100.0 mg/kg/injection, schedule: Q01DX009 (ip), vehicle: saline with Tween-80
[3] = dose: 200.0 mg/kg/injection, schedule: Q01DX009 (ip), vehicle: saline with Tween-80
[4] = dose: 100.0 mg/kg/injection, schedule: Q01DX009 (ip), vehicle: Klucel (hydroxypropylcellulose) (HPC)
[5] = dose: 100.0 mg/kg/injection, schedule: Q04DX003 (ip), vehicle: Klucel (hydroxypropylcellulose) (HPC)
[6] = dose: 200.0 mg/kg/injection, schedule: Q04DX003 (ip), vehicle: Klucel (hydroxypropylcellulose) (HPC)
[7] = dose: 400.0 mg/kg/injection, schedule: Q04DX003 (ip), vehicle: Klucel (hydroxypropylcellulose) (HPC)
[8] = dose: 100.0 mg/kg/injection, schedule: Q01DX001 (ip), vehicle: saline
[9] = dose: 100.0 mg/kg/injection, schedule: Q04DX002 (ip), vehicle: saline
[10] = dose: 100.0 mg/kg/injection, schedule: Q04DX003 (ip), vehicle: saline
[11] = dose: 200.0 mg/kg/injection, schedule: Q01DX001 (ip), vehicle: saline
[12] = dose: 200.0 mg/kg/injection, schedule: Q04DX002 (ip), vehicle: saline
[13] = dose: 200.0 mg/kg/injection, schedule: Q04DX003 (ip), vehicle: saline
[14] = dose: 400.0 mg/kg/injection, schedule: Q01DX001 (ip), vehicle: saline
[15] = dose: 400.0 mg/kg/injection, schedule: Q04DX002 (ip), vehicle: saline
[16] = dose: 400.0 mg/kg/injection, schedule: Q04DX003 (ip), vehicle: saline
[17] = dose: 50.0 mg/kg/injection, schedule: Q04DX003 (ip), vehicle: Klucel (hydroxypropylcellulose) (HPC)
[18] = dose: 100.0 mg/kg/injection, schedule: Q01DX001 (ip), vehicle: Klucel (hydroxypropylcellulose) (HPC)
[19] = dose: 200.0 mg/kg/injection, schedule: Q01DX001 (ip), vehicle: Klucel (hydroxypropylcellulose) (HPC)
[20] = dose: 400.0 mg/kg/injection, schedule: Q01DX001 (ip), vehicle: Klucel (hydroxypropylcellulose) (HPC)
[21] = dose: 100.0 mg/kg/injection, schedule: Q01DX001 (ip), vehicle: saline with Tween-80

Measured: T/C

CCc1cccc[n+]1CC(=O)c1ccccc1
inactive: dose: 6.25 mg/kg/injection, schedule: Q01DX009 (ip), vehicle: saline 95 % of control | dose: 12.5 mg/kg/injection, schedule: Q01DX009 (ip), vehicle: saline 98 % of control | dose: 25.0 mg/kg/injection, schedule: Q04DX003 (ip), vehicle: saline 96 % of control

COc1cc2nn(-c3ccccc3N)nc2cc1OC
inactive: [1] 98 % of control | [2] 90 % of control | [3] 102 % of control

ClC(Cl)(Cl)c1cccc(C(Cl)(Cl)Cl)c1
inactive: [4] 121 % of control | [5] 105 % of control | dose: 200.0 mg/kg/injection, schedule: Q01DX009 (ip), vehicle: Klucel (hydroxypropylcellulose) (HPC) 101 % of control | [6] 95 % of control | [7] 95 % of control

c1n[nH]c2c1CCC2
inactive: dose: 75.0 mg/kg/injection, schedule: Q01DX009 (ip), vehicle: saline with Tween-80 97 % of control | dose: 150.0 mg/kg/injection, schedule: Q01DX009 (ip), vehicle: saline with Tween-80 110 % of control

CCCC(NC(C)=O)C(=O)O (stereo unspecified)
inactive: [8] 94 % of control | dose: 100.0 mg/kg/injection, schedule: Q01DX009 (ip), vehicle: saline 94 % of control and 101 % of control | [9] 98 % of control and 111 % of control and 112 % of control | [10] 98 % of control | [11] 96 % of control | dose: 200.0 mg/kg/injection, schedule: Q01DX009 (ip), vehicle: saline 94 % of control and 90 % of control | [12] 108 % of control and 122 % of control and 123 % of control | [13] 96 % of control | [14] 93 % of control | dose: 400.0 mg/kg/injection, schedule: Q01DX009 (ip), vehicle: saline 99 % of control and 87 % of control | [15] 98 % of control and 111 % of control and 112 % of control | [16] 95 % of control

N=C(N(O)C(=O)Nc1ccccc1)C(Cl)(Cl)Cl
inactive: dose: 25.0 mg/kg/injection, schedule: Q01DX009 (ip), vehicle: Klucel (hydroxypropylcellulose) (HPC) 98 % of control | dose: 50.0 mg/kg/injection, schedule: Q01DX009 (ip), vehicle: Klucel (hydroxypropylcellulose) (HPC) 100 % of control | [4] 104 % of control and 105 % of control

COC(OC)c1cc(=O)[nH]c(=S)[nH]1
inactive: dose: 25.0 mg/kg/injection, schedule: Q04DX003 (ip), vehicle: Klucel (hydroxypropylcellulose) (HPC) 100 % of control | dose: 50.0 mg/kg/injection, schedule: Q01DX001 (ip), vehicle: Klucel (hydroxypropylcellulose) (HPC) 111 % of control | [17] 91 % of control | [18] 90 % of control | [5] 92 % of control | [19] 98 % of control

O=C1CC(c2ccccc2)(c2ccccc2)c2ccccc21
inactive: dose: 25.6 mg/kg/injection, schedule: Q04DX002 (ip), vehicle: saline with Tween-80 98 % of control | dose: 64.0 mg/kg/injection, schedule: Q04DX002 (ip), vehicle: saline with Tween-80 102 % of control | dose: 160.0 mg/kg/injection, schedule: Q04DX002 (ip), vehicle: saline with Tween-80 91 % of control | dose: 400.0 mg/kg/injection, schedule: Q04DX002 (ip), vehicle: saline with Tween-80 96 % of control

O=C1CCCc2ccc([N+](=O)[O-])cc21
inactive: [10] 96 % of control | [13] 87 % of control

C1C2CC3C1C1CN3C21 (stereo unspecified)
inactive: dose: 6.25 mg/kg/injection, schedule: Q01DX001 (ip), vehicle: saline 100 % of control | dose: 12.5 mg/kg/injection, schedule: Q01DX001 (ip), vehicle: saline 97 % of control | dose: 25.0 mg/kg/injection, schedule: Q01DX001 (ip), vehicle: saline 111 % of control

CCOC(=S)c1ccc(S(=O)(=O)NC)cc1
inactive: [18] 109 % of control | [19] 100 % of control | [20] 110 % of control

CCN(CC)c1ccc(N=Nc2ncn[nH]2)c(O)c1
inactive: [21] 100 % of control | dose: 200.0 mg/kg/injection, schedule: Q01DX001 (ip), vehicle: saline with Tween-80 98 % of control | dose: 400.0 mg/kg/injection, schedule: Q01DX001 (ip), vehicle: saline with Tween-80 88 % of control

Cc1nc2nc(Cl)c(Cl)nc2[nH]1
inactive: dose: 25.0 mg/kg/injection, schedule: Q04DX003 (ip), vehicle: saline with Tween-80 92 % of control | dose: 50.0 mg/kg/injection, schedule: Q04DX003 (ip), vehicle: saline with Tween-80 97 % of control | [5] 102 % of control | dose: 100.0 mg/kg/injection, schedule: Q04DX003 (ip), vehicle: saline with Tween-80 89 % of control

O=c1[nH]c(=O)n2ncnc2[nH]1
inactive: [10] 100 % of control | [13] 100 % of control | [16] 96 % of control

c1ccc(CSC2=NCCS2)cc1
inactive: [8] 101 % of control | [2] 98 % of control | [11] 106 % of control | [3] 98 % of control | [14] 106 % of control | dose: 400.0 mg/kg/injection, schedule: Q01DX009 (ip), vehicle: saline with Tween-80 104 % of control

COCCc1nnn(C)n1
inactive: [9] 97 % of control | [12] 97 % of control | [15] 108 % of control

CC(=O)OC1CCC2(C)C(=CC(=O)C3C2CCC2(C)C(C(C)CCCC(C)C)CCC32)C1 (stereo unspecified)
inactive: dose: 100.0 mg/kg/injection, schedule: Q01DX009 (sc), vehicle: steriod suspending solution 108 % of control | dose: 100.0 mg/kg/injection, schedule: Q04DX003 (sc), vehicle: steriod suspending solution 91 % of control | dose: 200.0 mg/kg/injection, schedule: Q01DX009 (sc), vehicle: steriod suspending solution 110 % of control | dose: 200.0 mg/kg/injection, schedule: Q04DX003 (sc), vehicle: steriod suspending solution 91 % of control | dose: 400.0 mg/kg/injection, schedule: Q01DX009 (sc), vehicle: steriod suspending solution 115 % of control | dose: 400.0 mg/kg/injection, schedule: Q04DX003 (sc), vehicle: steriod suspending solution 102 % of control

Cc1ccc(S(=O)(=O)OCC2OC(OCc3ccccc3)C3OC(C)(C)OC23)cc1 (stereo unspecified)
inactive: [17] 91 % of control | [6] 88 % of control | [7] 92 % of control

COC(=O)C(c1ccccc1)c1ccccc1
inactive: [18] 97 % of control | [19] 97 % of control | [20] 104 % of control

c1ccc(-c2cc(-c3ccccc3)c3c([o+]2)CCCCCCCCCCCC3)cc1
inactive: [1] 108 % of control | [2] 108 % of control | [3] 97 % of control

CC1(C)N=C(N)N=C(N)N1c1cc(Cl)cc(CCNC(=O)Nc2ccc(S(=O)(=O)F)cc2)c1
inactive: dose: 25.0 mg/kg/injection, schedule: Q01DX001 (ip), vehicle: saline with Tween-80 98 % of control | dose: 50.0 mg/kg/injection, schedule: Q01DX001 (ip), vehicle: saline with Tween-80 98 % of control | [21] 106 % of control

CC(O)(C(=O)O)c1ccccc1 (stereo unspecified) (tested in a mixture with another compound)
inactive: dose: 100.0 mg/kg/injection, schedule: Q01DX009 (ip), vehicle: other 94 % of control | [10] 92 % of control | dose: 200.0 mg/kg/injection, schedule: Q01DX009 (ip), vehicle: other 98 % of control | [13] 103 % of control | dose: 400.0 mg/kg/injection, schedule: Q01DX009 (ip), vehicle: other 102 % of control | [16] 89 % of control

CN/C=C1\CCOC1=O
inactive: [9] 124 % of control | [12] 101 % of control | [15] 90 % of control

CCC1CSC(=S)N1 (stereo unspecified)
inactive: dose: 3.12 mg/kg/injection, schedule: Q01DX009 (ip), vehicle: acetone 92 % of control | dose: 3.12 mg/kg/injection, schedule: Q04DX003 (ip), vehicle: saline 103 % of control | dose: 6.25 mg/kg/injection, schedule: Q01DX009 (ip), vehicle: acetone 102 % of control | dose: 6.25 mg/kg/injection, schedule: Q04DX003 (ip), vehicle: saline 101 % of control | dose: 12.5 mg/kg/injection, schedule: Q04DX003 (ip), vehicle: saline 102 % of control

O=c1[nH]c(=O)n(CCCc2ccccc2)cc1-c1ccccc1
inactive: dose: 400.0 mg/kg/injection, schedule: Q01DX001 (ip), vehicle: carboxymethylcellulose (CMC) 90 % of control

CCN(CC)Cc1nnnn1-c1ccccc1
inactive: [8] 103 % of control | [11] 97 % of control | [14] 106 % of control
